In data set [1] the test system is humanized PDE4D mice. The data set is described as follows: Y-maze spontaneous alternation test. The format is in vivo, mouse.
Procedure: (§1) The test consists of a single 5 min trial, in which the mouse was allowed to explore all three arms of the Y-maze [31]. Spontaneous alternation (%) was defined as consecutive entries in three different arms, divided by the number of possible alternations (total arm entries minus 2).
(§2) Y-maze spontaneous alternation test. The Y-maze apparatus made of matt blue Plexiglas had three identical arms (L 40 cm, W 5 cm, H 15 cm) placed at 120° from each other. The test consisted of a single 5 min trial, in which the mouse was allowed to explore all three arms of the Y-maze. The start arm was varied between animals to avoid placement bias. Spontaneous Alternation (%) was defined as consecutive entries in 3 different arms, divided by the number of possible alternations (total arm entries minus 2). Mice with less than 8 arm entries during the 5-min trial were excluded from the analysis.
Data set [2] deals with humanized PDE4D mice. The data set is described as follows: Novel object recognition, 24 h inter-trial interval. It is filed as in vivo, mouse.
Procedure: (§3) The novel object recognition test was performed as described elsewhere [32, 33]. Briefly, the task procedure consists of three phases: habituation phase on day 1 for 10 min, training (T1) phase on day 2 for 5 min, and testing (T2) phase on day 3 for 5 min. The duration each animal spent exploring the objects was recorded. Time spent exploring the identical objects in T1 was recorded as a1 and a2; time spent exploring the familiar and the novel objects in T2 was recorded as “a” and “b”, respectively. The following variables were calculated: e1 = a1 + a2, e2 = a + b, the relative discrimination index d2 = (b–a)/e2.
Novel object recognition. Mice were handled for 3-5 min for 5 days in a row. The novel object recognition test was performed in a Plexiglas open field box (L30 cm, W50 cm, H40 cm) as described elsewhere^64,65. Briefly, the task procedure consists of three phases: habituation, training (T1), and testing (T2). In the habituation phase (day 1), each animal is allowed to freely explore the apparatus for 10 min; then the animal is returned to its home cage. During the training phase (day 2), a single animal is placed in the center of the open field containing two identical objects located on the diagonal of the field, and allowed to explore for 5 min. After a retention interval after T1 of 24 h (long-term recall) or 1 h (scopolamine-impairment model), the animal was subjected to the T2 testing phase for 5 min, during which one familiar object and one novel object were presented. The arena and objects were thoroughly wiped with 70% ethanol after each trial to avoid the presence of any olfactory cues. The animals were considered to be exploring the object when directing their nose to the object at a distance of no more than 2 cm and/or touching or sniffing the object. The duration each animal spent exploring the objects was recorded. Time spent exploring the identical objects in T1 was recorded as a1 and a2; time spent exploring the familiar and the novel objects in T2 was recorded as ‘a’ and ‘b’, respectively. The following variables were calculated: e1 = a1 + a2, e2 = a + b, the relative discrimination index d2 = (b – a)/e2.
In data set [3] the test system is wild-type mice. The data set is described as follows: Ketamine/xylazine anesthesia duration (surrogate of emesis). The note with it: 1 mg/kg IP.
Data set [4] has as its system wild-type mice. In words: Novel object recognition, 24 h inter-trial interval. The format is in vivo, mouse.
Procedure: as §3
Novel object recognition. Mice were handled for 3-5 min for 5 days in a row. The novel object recognition test was performed in a Plexiglas open field box (L30 cm, W50 cm, H40 cm) as described elsewhere^64,65. Briefly, the task procedure consists of three phases: habituation, training (T1), and testing (T2). […] The duration each animal spent exploring the objects was recorded. Time spent exploring the identical objects in T1 was recorded as a1 and a2; time spent exploring the familiar and the novel objects in T2 was recorded as ‘a’ and ‘b’, respectively. The following variables were calculated: e1 = a1 + a2, e2 = a + b, the relative discrimination index d2 = (b – a)/e2.
Data set [5] deals with humanized PDE4D mice. The note with it: 1 mg/kg IP, hPDE4D mice.
Data set [6] deals with PDE4 binding sites in wild-type mouse brain membranes. In words: [3H]-rolipram radioligand binding to brain membranes. The note with it: for Ki: wild-type.
Procedure: (§4) Mice were killed by decapitation, and the brains were immediately dissected on ice and homogenized in binding buffer using a Polytron homogenizer (Brinkman Instruments, Westbury, NY). The membrane fraction of the homogenate was obtained by centrifugation at 15,000 × g for 15 min, and resuspension of the pellet in the binding buffer.
(§5) Mice were killed by decapitation, and the brains were immediately dissected on ice and homogenized in binding buffer (50 mM Tris-HCl, 5 mM MgCl2, pH 7.5) using a Polytron homogenizer (Brinkman Instruments, Westbury, NY). The membrane fraction of the homogenate was obtained by centrifugation at 15,000 g for 15 min, and resuspension of the pellet in the binding buffer^29.
(§6) At the end of the incubation, reactions were stopped by adding 5 ml of the ice-cold binding buffer and rapid vacuum filtration through glass fiber filters that had been soaked in 0.3% polyethyleneimine. The filters were then washed twice with 5 ml of the ice-cold binding buffer, and discs of filter paper were collected for measurement of radioactivity by liquid scintillation counting.
In data set [7] the test system is wild-type mice. In words: Y-maze spontaneous alternation test. It is filed as in vivo, mouse.
Procedure: as §1, §2
Data set [8] addresses PDE4 binding sites in humanized PDE4D mouse brain membranes. In words: [3H]-rolipram radioligand binding to brain membranes. The settings on record: for Ki: hPDE4D.
Procedure: as §4, §5, §6
In data set [9] the test system is humanized PDE4D mice. The data set is described as follows: Scopolamine-induced memory impairment in novel object recognition, 1 h inter-trial interval. The format is in vivo, mouse. The settings on record: scopolamine 0.1 mg/kg IP 30 min prior to training. How it is done: The novel object recognition test was performed as described elsewhere. […] The duration each animal spent exploring the objects was recorded. Time spent exploring the identical objects in T1 was recorded as a1 and a2; time spent exploring the familiar and the novel objects in T2 was recorded as “a” and “b”, respectively. The following variables were calculated: e1 = a1 + a2, e2 = a + b, the relative discrimination index d2 = (b–a)/e2.
For the scopolamine-induced memory impairment models, a single dose of scopolamine (0.1 mg/kg, IP) was administered 30 min before the training session of the NOR. Animals treated with H-89 or vehicle were implanted with 26-gauge guide cannula unilaterally (AP −0.2 mm from Bregma, ML +1 mm from the midline, DV−2mm from skull surface) and rested for a week before any tests.
Novel object recognition. Mice were handled for 3-5 min for 5 days in a row. The novel object recognition test was performed in a Plexiglas open field box (L30 cm, W50 cm, H40 cm) as described elsewhere^64,65. Briefly, the task procedure consists of three phases: habituation, training (T1), and testing (T2). In the habituation phase (day 1), each animal is allowed to freely explore the apparatus for 10 min; then the animal is returned to its home cage. During the training phase (day 2), a single animal is placed in the center of the open field containing two identical objects located on the diagonal of the field, and allowed to explore for 5 min. After a retention interval after T1 of 24 h (long-term recall) or 1 h (scopolamine-impairment model), the animal was subjected to the T2 testing phase for 5 min, during which one familiar object and one novel object were presented. […] The duration each animal spent exploring the objects was recorded. Time spent exploring the identical objects in T1 was recorded as a1 and a2; time spent exploring the familiar and the novel objects in T2 was recorded as ‘a’ and ‘b’, respectively. The following variables were calculated: e1 = a1 + a2, e2 = a + b, the relative discrimination index d2 = (b – a)/e2.

Setting [10] is: inhibition of 2 nM [3H]-rolipram binding, read-out: One-site Ki.
[11] abbreviates: inhibition of [3H]-rolipram binding, read-out: Two-site Ki1.
[12] abbreviates: inhibition of [3H]-rolipram binding, read-out: Two-site Ki2.
Setting [13] is: H-89 1 µg i.c.v. followed by BPN14770 0.03 mg/kg PO, hPDE4D mice.

Structures are written as SMILES. Where two headings read alike, the source gives them in different places.

Turning to `COc1ccc(C2CNC(=O)C2)cc1OC1CCCC1` (centres unmarked) [Rolipram], the “MED in Y-maze” value in the data set on humanized PDE4D mice [1] (humanized PDE4D mice) and with wild-type mice [7] was 0.1 mg/kg IP in each case. The “MED in NOR” value in the data set on humanized PDE4D mice [2] (humanized PDE4D mice, 24 h inter-trial interval) is 0.1 mg/kg IP; in the data set on wild-type mice [4] it was 0.1 mg/kg IP. Further, the “effect on ketamine/xylazine anesthesia duration” value with wild-type mice [3] and in the data set on humanized PDE4D mice [5] was “significantly reduced the anesthesia duration” throughout. In addition, the Ki was 1.99 ± 0.11 nM in [6] (setting [10]); 0.75 ± 0.33 nM in [6] (setting [11]); 34.1 ± 26.8 nM in [6] (setting [12]); 1.66 ± 0.07 nM in data set [8] (setting [10]); 0.39 ± 0.07 nM in data set [8] (setting [11]); 6.1 ± 0.79 nM in data set [8] (setting [12]).

Take `O=S(=O)(NCCNC/C=C/c1ccc(Br)cc1)c1cccc2cnccc12` [H-89, reference compound]: the “effect on memory benefit of BPN14770 in Y-maze” value in the data set on humanized PDE4D mice [1] (setting [13]) is given as “significantly antagonized the effect of BPN14770 on memory”. The “effect on memory benefit of BPN14770 in NOR” value in the data set with humanized PDE4D mice [2] (setting [13]) is “significantly antagonized the effect of BPN14770 on memory”.

As to `COc1ccc(C2CNC(=O)C2)cc1OC1CCCC1` (centres unmarked) [[^3H]-rolipram], the Kd in [6] (wild-type mouse brain membranes, read-out: Kd of [3H]-rolipram saturation binding) stood at 3.84 nM; in [8] (humanized PDE4D mouse brain membranes, read-out: Kd of [3H]-rolipram saturation binding) it was 3.72 nM.

As for `CN1[C@@H]2C[C@@H](OC(=O)[C@H](CO)c3ccccc3)C[C@H]1[C@@H]1O[C@@H]12` [scopolamine, reference compound], the “effect on short-term memory in NOR” value in the data set with humanized PDE4D mice [9] is on record as “abolished short-term memory formation”.

For the origin of these results see paper PMC6135860 (Neuropsychopharmacology, 2018).
